Active and inactive are the calls of the source. No cut-off for these calls is given here.
How the values were obtained:
Mus musculus [1] = test: Analgesic activity in sc dosed mouse by hot plate method; format: functional
Mus musculus [2] = test: Analgesic activity in mouse at 100 mg/kg, sc by hot plate method; format: functional, organism-based; design: dose 100 mg/kg
Mus musculus [3] = test: Analgesic activity in mouse at 20 mg/kg, sc by hot plate method; format: functional, organism-based; design: dose 20 mg/kg
Rhesus monkey [4] = test: Toxicity in nonwithdrawn monkey assessed as precipitation of abstinence at 5 mg/kg; format: organism-based, Macaca mulatta; design: dose 5 mg/kg; details: in vivo
Rhesus monkey [5] = test: Suppression of narcotic abstinence syndrome in monkey at 5 mg/kg administered as single dose; format: functional, organism-based; design: dose 5 mg/kg; details: Macaca mulatta
Mus musculus [6] = test: Analgesic activity in sc dosed mouse by Nilsen method; format: functional
Rhesus monkey [7] = test: Toxicity in monkey assessed as morphine-like dependence liability; format: organism-based, Macaca mulatta; details: in vivo
Rhesus monkey [8] = test: Toxicity in monkey assessed as precipitation of abstinence at 3 to 24 mg/kg; format: organism-based, Macaca mulatta; design: dose 3-24 mg/kg; details: in vivo
Rhesus monkey [9] = test: Suppression of narcotic abstinence syndrome in monkey at 3 to 24 mg/kg; format: functional, organism-based; details: Macaca mulatta
Mus musculus [10] = test: Analgesic activity in mouse at 50 mg/kg, sc by hot plate method; format: functional, organism-based; design: dose 50 mg/kg

Row | SMILES | ED50 (Mus musculus [1]) [mg/kg] | ED50 (Mus musculus [6]) [mg/kg] | other results
1 | Cc1[nH]c(C)c(C(=O)OC2CCN(C)C2)c1C.Cl.O (stereo unspecified) | 64.3 |  | 
2 | Cc1[nH]c(C)c(C(=O)OC2CCCN(C)C2)c1C (stereo unspecified) |  |  | Activity (Mus musculus [2]): inactive
3 | Cc1c(C(=O)OC2CCN(C)CC2)c(C)n(C)c1C |  |  | Activity (Mus musculus [3]): Active
4 | Cc1[nH]c(C)c(C(=O)OC2CCN(Cc3ccccc3)CC2)c1C.Cl.O | 6.3 |  | 
5 | Cc1[nH]c(C)c(C(=O)OC2CCN(C)CC2)c1C.O=C(O)C(F)(F)F | 4.9 | 7.1 | Activity (Rhesus monkey [4]): Non-toxic; Activity (Rhesus monkey [5]): inactive; Activity (Rhesus monkey [7]): Non-toxic
6 | Cc1[nH]c(C)c(C(=O)OC2CC(C)(C)NC(C)(C)C2)c1C |  |  | Activity (Mus musculus [2]): inactive
7 | Cc1[nH]c(C)c(C(=O)O[C@H]2C[C@H]3CC[C@@H](C2)N3C)c1C.O.O=C(O)C(F)(F)F | 21.3 |  | 
8 | Cc1[nH]c(C)c(C(=O)OC2CCN(CCc3ccccc3)CC2)c1C |  |  | Activity (Mus musculus [3]): Active
9 | Cc1[nH]c(C)c(C(=O)O[C@@H]2[C@H]3O[C@H]4C[C@@H]2N(C)[C@H]3C4)c1C | 6 | 28.9 | Activity (Rhesus monkey [8]): Non-toxic; Activity (Rhesus monkey [9]): inactive
10 | COc1ccc2c3c1O[C@H]1[C@@H](O)C=C[C@H]4[C@@H](C2)N(C)CC[C@@]341 [CODEINE] | 7.5 | 4.5 | 
11 | CN1CC[C@]23c4c5ccc(O)c4O[C@H]2[C@@H](O)C=C[C@H]3[C@H]1C5 [MORPHINE] | 1.2 | 0.8 | 
12 | Cc1[nH]c(C)c(C(=O)O[C@@H]2C[C@H]3CC[C@@H](C2)N3C)c1C |  |  | Activity (Mus musculus [10]): Active
